Data published in patent US20240366728A1, “Treatment of Diabetes Mellitus” (Carmot Therapeutics Inc., priority 2023, published 2024).
Marks after values point to notes of the source that are not given here.

Experiments:
[1] = system: C57BL/6J-DIO mice; experiment: intraperitoneal glucose tolerance test in DIO mice; assay type: in vivo, mouse; settings: DIO mice; 20 nmol/kg
[2] = system: lean C57BL/6J, GLP-1R+/+ and GLP-1R-/- mice; experiment: single intracerebroventricular injection: food consumption and body weight; settings: for food consumption and body weight (in words) / body weight decreased / body weight decreased compared to liraglutide / food consumption lowered compared to liraglutide / food consumption lowered compared to vehicle: ICV 0.025 nmol; for body weight decreased / body weight decreased compared to liraglutide / food consumption lowered compared to liraglutide / food consumption lowered compared to vehicle: lean C57BL/6J
[3] = clinical; design: species or system human; settings: in vivo
Method: Blood samples, pre- and post-dose, were collected during the in-house treatment periods for the assessment of PD and PK endpoints. […] In addition, fasting plasma glucose (FPG), insulin, C-peptide, GCG and HOMA-IR after ≥10 hours overnight fast and VAS assessments were done on Days 1, 2 and 3.
In participants with T2DM, blood samples were collected on Days 2, 3 and 4 for assessing PK profiles and for PD profiles, on Days 2 and 3. Fasting plasma glucose (FPG), insulin, C-peptide, GCG and HOMA-IR after ≥10 hours overnight fast on Days 1, 2, 3 and 4. A mixed meal tolerance test (MMTT) and prospective meal consumption (ad libitum meal) was administered on Day 4. Appetite and food intake were assessed using a VAS questionnaire (appetite, hunger and satiety) on Days 1, 2, 3 and 4.

[4] = biological target: T1, human GIPR (Homo sapiens, UniProt P48546); experiment: β-arrestin-2 recruitment (NanoBiT), human GIPR; assay type: cell-based; settings: Table 17
T1 sequence (P48546 22-466): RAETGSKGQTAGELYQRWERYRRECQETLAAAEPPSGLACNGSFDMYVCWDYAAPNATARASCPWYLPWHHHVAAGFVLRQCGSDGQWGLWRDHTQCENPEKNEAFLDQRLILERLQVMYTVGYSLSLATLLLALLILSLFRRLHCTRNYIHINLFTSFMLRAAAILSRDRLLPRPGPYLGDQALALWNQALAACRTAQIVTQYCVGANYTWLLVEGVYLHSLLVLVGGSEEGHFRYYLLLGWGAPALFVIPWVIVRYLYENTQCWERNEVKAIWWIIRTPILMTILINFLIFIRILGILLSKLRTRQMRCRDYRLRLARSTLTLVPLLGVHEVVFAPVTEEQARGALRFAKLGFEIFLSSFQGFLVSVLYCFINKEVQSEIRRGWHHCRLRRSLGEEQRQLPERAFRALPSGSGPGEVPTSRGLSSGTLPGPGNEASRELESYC
Method: To measure GLP-1R and GIPR-mediated β-arrestin recruitment, we utilized Promega's NanoBiT® technology or NanoLuc® Binary Technology. The NanoLuc luciferase is split into two subunits, called LgBiT and SmBIT, which are expressed in HEK293 cells as fusion proteins at the C-terminus of GLP-IR or GIPR and the N-terminus of β-arrestin-2. […] The next day, the media was removed and replaced with […] 1:100 dilution of Nano-Glo® Live Cell Substrate in Opti-MEM™ and equilibrated to room temperature for ten minutes. Background luminescence was measured before 10 nL compound was added using an ECHO Acoustic Liquid Handler.
To measure GLP-1R and GIPR-mediated β-arrestin recruitment, Promega's NanoBiT® technology or NanoLuc® Binary Technology were utilized. Both allow for the detection and quantification of protein: protein interactions in live cells (Samms et al., Trends Endocrinol Metab 31:410-21). The NanoLuc luciferase is split into two subunits, called LgBiT and SmBIT, which are expressed in HEK293 cells as fusion proteins at the C-terminus of GLP-1R or GIPR and the N-terminus of β-arrestin-2, respectively. […] Background luminescence was measured before 10 nL compound was added using an ECHO Acoustic Liquid Handler. Luminescence was measured at 1.5-minute intervals for 30 minutes.

[5] = system: participants with obesity and participants with T2DM; experiment: CT-868-003 crossover study: safety; assay type: in vivo, human; settings: for Infections and infestations / Urinary tract infection: Table 24
From the text: Safety assessments of this study included treatment-emergent adverse events (TEAEs), serious adverse events (SAEs), adverse events of special interest (AESI), vital signs, 12-lead electrocardiogram (ECG), clinical lab evaluations, and physical exam.
Safety assessments which occurred throughout the entire study, included monitoring of incidence and severity of AEs, treatment-emergent AEs (TEAEs) and AEs of special interest (AESIs) (e.g., GI events, hypoglycemia), clinical laboratory abnormalities (ECGs, chemistry, hematology, and urinalysis), and changes in vital sign measurements (BP, heart rate, respiratory rate, and aural temperature).
AE terms recorded by the Investigator were coded to system organ class (SOC) and preferred term (PT) using the Medical Dictionary for Regulatory Activities (MedDRA) version 24.0. Severity was collected using the Common Terminology Criteria for AEs (CTCAE) version 5.0 Toxicity Grade. Events with missing severity were summarized as Grade 3. TEAEs summarized by severity counted each participant once for the maximum severity within each SOC and PT within each in-house treatment period and overall. TEAEs marked with a relationship to study treatment as definitely, probable, possible, or missing were considered as related TEAEs. Events with missing relationship to study treatment were summarized as related. The number and percentage of participants with TEAEs were summarized by MedDRA-coded SOCs and PTs.

[6] = Part 1 (participants with obesity)
[7] = Part 2 (participants with T2DM)

## CCCCCCCCCCCCCCCC(=O)N[C@@H](CCC(=O)NCCCC[C@H](NC(=O)[C@H](CO)NC(=O)[C@@H]1CCCN1C(=O)[C@@H]1CCCN1C(=O)[C@@H]1CCCN1C(=O)[C@H](C)NC(=O)CNC(=O)[C@H](CO)NC(=O)[C@H](CO)NC(=O)[C@@H]1CCCN1C(=O)CNC(=O)CNC(=O)[C@H](C)NC(=O)[C@H](CC(C)C)NC(=O)[C@H](CC(C)C)NC(=O)[C@H](Cc1c[nH]c2ccccc12)NC(=O)[C@H](CC(N)=O)NC(=O)[C@@H](NC(=O)[C@H](Cc1ccccc1)NC(=O)[C@H](CCC(=O)O)NC(=O)C(C)(C)NC(=O)[C@H](C)NC(=O)[C@H](C)NC(=O)[C@H](CCC(N)=O)NC(=O)[C@H](CCCCN)NC(=O)[C@H](CC(=O)O)NC(=O)[C@H](CC(C)C)NC(=O)[C@H](Cc1ccc(O)cc1)NC(=O)[C@@H](NC(=O)[C@H](CO)NC(=O)[C@H](Cc1ccc(O)cc1)NC(=O)[C@H](CC(=O)O)NC(=O)[C@H](CO)NC(=O)[C@@H](NC(=O)[C@H](Cc1ccccc1)NC(=O)[C@@H](NC(=O)CNC(=O)[C@H](CCC(=O)O)NC(=O)CSCC(=O)NCCN1C(=O)CSC1=O)[C@@H](C)O)[C@@H](C)O)[C@@H](C)CC)C(C)C)C(N)=O)C(=O)O [CT-859]
[1]
  glucose AUC 4 hours after administration (in words): more efficacious than liraglutide in DIO mice
[2]
  food consumption and body weight vs liraglutide after ICV (in words): decreased food consumption and body weight more than liraglutide
[2]; GLP-1R+/+ mice
  food consumption and body weight (in words): suppressed food consumption and reduced body weight
[2]; GLP-1R-/- mice
  food consumption and body weight (in words): no effect
[2]; GLP-1R-KO mice, 0.025 and 1 nmol/kg
  food consumption, body weight, blood glucose after ICV (in words): did not have any significant effects on food consumption, body weight, or blood glucose
[2]; GLP-1R-WT mice, 0.025 and 1 nmol/kg, up to 72 h
  food consumption, body weight after ICV (in words): dose dependent reduction of cumulative food consumption
[2]; 24 hours
  body weight decreased: 9%
  body weight decreased compared to liraglutide: 5%
  food consumption lowered compared to liraglutide: 45%
  food consumption lowered compared to vehicle: 63%
[2]; 48 hours
  body weight decreased: 5%
  body weight decreased compared to liraglutide: 5%
  food consumption lowered compared to liraglutide: 27%
  food consumption lowered compared to vehicle: 38%
[2]; wildtype mice, ICV […], up to 19 h
  food intake and body weight vs equal dose of liraglutide (in words): significantly greater reduction of food intake and body weight

## CCCCCCCCCCCCCCCC(=O)N[C@@H](CCC(=O)NCCCC[C@H](NC(=O)[C@H](CO)NC(=O)[C@@H]1CCCN1C(=O)[C@@H]1CCCN1C(=O)[C@@H]1CCCN1C(=O)[C@H](C)NC(=O)CNC(=O)[C@H](CO)NC(=O)[C@H](CO)NC(=O)[C@@H]1CCCN1C(=O)CNC(=O)CNC(=O)[C@H](C)NC(=O)[C@H](CC(C)C)NC(=O)[C@H](CC(C)C)NC(=O)[C@H](Cc1c[nH]c2ccccc12)NC(=O)[C@H](CC(N)=O)NC(=O)[C@@H](NC(=O)[C@H](Cc1ccccc1)NC(=O)[C@H](CCC(=O)O)NC(=O)C(C)(C)NC(=O)[C@H](C)NC(=O)[C@H](C)NC(=O)[C@H](CCC(N)=O)NC(=O)[C@H](CCCCN)NC(=O)[C@H](CC(=O)O)NC(=O)[C@H](CC(C)C)NC(=O)[C@H](Cc1ccc(O)cc1)NC(=O)[C@@H](NC(=O)[C@H](CO)NC(=O)[C@H](Cc1ccc(O)cc1)NC(=O)[C@H](CC(=O)O)NC(=O)[C@H](CO)NC(=O)[C@@H](NC(=O)[C@H](Cc1ccccc1)NC(=O)[C@@H](NC(=O)CNC(=O)[C@H](CCC(=O)O)NC(=O)CSCC(=O)NCCN1CCCCC1=O)[C@@H](C)O)[C@@H](C)O)[C@@H](C)CC)C(C)C)C(N)=O)C(=O)O [CT-868]
[3]; human
  incremental AUC: 128,267 ng/ml*min
  terminal half-life (t1/2): 1,190 minutes
[3]; human, AUC
  AUC: 3490 ng·h/mL
[3]; human, AUC (0-tau)
  AUC: 3860 ng·h/mL
[3]; human, Cmax
  Cmax: 247 ng/mL
[3]; human, Maximum Concentration of CT-868 (Cmax)
  Cmax: 274 ng/mL
[3]; human, Time of Maximum Concentration of CT-868 (Tmax)
  Tmax: 10.9 h
[3]; human, Tmax
  Tmax: 12.2 h
[3]; human, incremental AUC
  AUC: 2260 ng·h/mL
[3]; human, terminal half-life
  half-life: ~20 h
[3]; human, terminal half-life (t1/2)
  half-life: 19.8 h
[3]
  time at which maximum plasma concentrations were attained post-dose: 11 to 12 h
[4]; read-out: hGIPR β-arrestin-2 EC50
  EC50: 13 nM
[4]; read-out: hGIPR β-arrestin-2 % Emax
  Emax: 1%
[5]; [6]
  Infections and infestations: 0 n (%)
  Urinary tract infection: 0 n (%)
[5]; [7]
  Infections and infestations: 0 n (%)
  Urinary tract infection: 0 n (%)
[5]; in vivo
  AEs of Special Interest (AESI) Total: 10 (50.0) n (%)
  Any AESIs, Grade 2: 1 (8.3%) n (%)
  Arthralgia: 0 n (%)
  At Least 1 Study Drug Related TEAE: 9 (45.0) n (%)
  At Least 1 TEAE: 14 (70.0) n (%)
  Back pain: 0 n (%)
  Coagulation test abnormal: 0 n (%)
  Dermatitis: 0 n (%)
  GI side effects (in words): mostly mild and transient
  Hypoglycemia: 7 (35.0) n (%)
  Injection Site Reaction: 1 (5.0) n (%)
  Investigations: 0 n (%)
  Musculoskeletal and connective tissue disorders: 0 n (%)
  SAEs: 0 n (%)
  Treatment Discontinuation: 1 (5.0)* n (%)
  participants with Grade 1 hypoglycemia events: 7 participants
  tolerability (in words): well tolerated
  vital signs, ECG parameters, laboratory values (in words): no clinically significant CT-868-related changes
